Test results published in PMC7221806, “PF74 and Its Novel Derivatives Stabilize Hexameric Lattice of HIV-1 Mature-Like Particles” (Molecules, 2020).

Key:
HIV-1 [1] = format: cell-based; conditions: OMK cells, 10 µM, 2.5 µM CsA
HIV-1 CANC [2] = target: T1, HIV-1 CANC (Human immunodeficiency virus type 1 group M subtype B, UniProt P12493); assay: Fast Assembly Inhibitor Test for HIV (FAITH), in vitro assembly of mature-like particles, with TEM; conditions: 10 µM; for TEM phenotype of CANC assembled in presence of inhibitor: after FAITH, negative staining
HIV-1 [3] = assay: microbe, parasite or virus in culture; format: cell-based; conditions: for IC50: Human immunodeficiency virus 1, HEK293, 48 h
HIV-1 CANC [4] = target: T1, HIV-1 CANC; assay: Disassembly inhibitor test for HIV (DITH), stability of preassembled CANC particles, with TEM; conditions: 10 µM; for relative stability of HIV-1 CANC assemblies in disassembly buffer: CANC without inhibitor in disassembly buffer = 0%; for TEM of CANC particles after incubation in disassembly buffer: after DITH, negative staining
[5] = Cytotoxicity, resazurin assay; format: cell-based; conditions: human, HEK 293T cells, 24 h treatment
[6] = Cytotoxic effect on OMK cells; format: cell-based; conditions: owl monkey, OMK (owl monkey kidney) cells

Compound | effect on HIV-1 infectivity / uncoating in CsA-washout assay (in words) (HIV-1 [1]) | effect on assembly of mature-like CANC particles (in words) (HIV-1 CANC [2]; CANC without inhibitor = 100%) | TEM phenotype of CANC assembled in presence of inhibitor (HIV-1 CANC [2]) | IC50 (HIV-1 [3]) [µM] | relative stability of HIV-1 CANC assemblies in disassembly buffer (HIV-1 CANC [4]) | TEM of CANC particles after incubation in disassembly buffer (HIV-1 CANC [4]) | CC50 at 24 h [5] [µM] | stabilization of HIV-1 CANC compared with PF74 (in words) (HIV-1 CANC [4]) | inhibitory activity against HIV-1 compared with PF74 (in words) (HIV-1 [3]) | CC50 [6] [µM]
Cc1[nH]c2ccccc2c1CC(=O)N[C@@H](Cc1ccccc1)C(=O)N(C)c1ccccc1 [PF74] | strongest impact on HIV-1 infectivity in OMK cells at the early stage of HIV-1 infection | no effect | predominant formation of cone-like and shorter tubular structures | 1.75 ± 0.5 | about 60% | intact CANC particles | > 40 |  |  | 
COc1ccc2c(c1)c(CC(=O)N[C@@H](Cc1ccccc1)C(=O)N(C)c1ccccc1)c(C)n2C(=O)c1ccc(Cl)cc1 [D2, (S)-2-(2-(1-(4-chlorobenzoyl)-5-methoxy-2-methyl-1H-indol-3-yl)acetamido)-N-methyl--N,3-diphenylpropanamide] |  |  |  | 8 ± 1.2 |  | mainly disassembled material | > 40 | lower effect on HIV-1 CANC stability than PF74 |  | 
CN(C(=O)[C@H](Cc1ccccc1)NC(=O)[C@@H]1Cc2ccccc2C(=O)N1)c1ccccc1 [D7, (S)-N-((S)-1-(methyl(phenyl)amino)-1-oxo-3-phenylpropan-2-yl)-1-oxo-1,2,3,4--tetrahydroisoquinoline-3-carboxamide] |  |  | long, tubular structures | > 20 |  | mainly disassembled material | > 40 | lower effect on HIV-1 CANC stability than PF74 |  | 
CN(C(=O)[C@H](Cc1ccccc1)NC(=O)[C@H]1Cc2ccccc2C(=O)N1C)c1ccccc1 [D8R, (R)-2-methyl-N-((S)-1-(methyl(phenyl)amino)-1-oxo-3-phenylpropan-2-yl)-1-oxo--1,2,3,4-tetrahydroisoquinoline-3-carboxamide] | major effect |  |  | 4.5 ± 1.5 |  | mainly disassembled material | > 40 | lower effect on HIV-1 CANC stability than PF74 | only slightly weaker than that of PF74 | 
CN(C(=O)[C@H](Cc1ccccc1)NC(=O)[C@@H]1Cc2ccccc2C(=O)N1C)c1ccccc1 [D8S, (S)-2-methyl-N-((S)-1-(methyl(phenyl)amino)-1-oxo-3-phenylpropan-2-yl)-1-oxo--1,2,3,4-tetrahydroisoquinoline-3-carboxamide] |  |  |  | > 20 |  | mainly disassembled material | > 40 | lower effect on HIV-1 CANC stability than PF74 |  | 
CN(C(=O)[C@H](Cc1ccccc1)NC(=O)Cc1n[nH]c2ccccc12)c1ccccc1 [D9, (S)-2-(2-(1H-indazol-3-yl)acetamido)-N-methyl-N,3-diphenylpropanamide] | highly active during the first two hours post infection, then its activity dropped |  |  | 3.4 ± 0.9 | 80% | intact CANC particles | > 40 | more potent stabilizers than PF74 | only slightly weaker than that of PF74 | 
CC(C)Cc1ccc([C@@H](C)C(=O)N[C@@H](Cc2ccccc2)C(=O)N(C)c2ccccc2)cc1 [D4R, (S)-2-((R)-2-(4-isobutylphenyl)propanamido)-N-methyl-N,3-diphenylpropanamide] |  |  |  | > 20 |  | mainly disassembled material | 27 ± 3.5 | lower effect on HIV-1 CANC stability than PF74 |  | 
CN(C(=O)[C@H](Cc1ccccc1)NC(=O)Cc1c[nH]c2ccccc12)c1ccccc1 [D1, (S)-2-(2-(1H-indol-3-yl)acetamido)-N-methyl-N,3-diphenylpropanamide] | strongest impact on HIV-1 infectivity in OMK cells at the early stage of HIV-1 infection |  |  | 3.5 ± 0.6 |  |  | > 40 | only slightly less active in stabilization than PF74 | only slightly weaker than that of PF74 | 
CN(C(=O)[C@H](Cc1ccccc1)NC(=O)NCc1nc2ccccc2[nH]1)c1ccccc1 [D10, (S)-2-(3-((1H-benzo[d]imidazol-2-yl)methyl)ureido)-N-methyl-N,3-diphenylpropanamide] |  |  | predominant formation of cone-like and shorter tubular structures | 0.5 ± 0.3 | 90% | intact CANC particles | 10 ± 1.6 | more potent stabilizers than PF74 | better inhibitory activity against HIV-1 than PF74 | < 3
